Experimental data: patent US20210190799A1, “METHOD FOR DIAGNOSING LIVER DISEASES AND METHOD FOR SCREENING THERAPEUTIC AGENT FOR LIVER DISEASES USING CHANGES IN EXPRESSION OF TM4SF5 PROTEIN” (SEOUL NATIONAL UNIVERSITY R&DB FOUNDATION, priority 2017, published 2021)
Substitutions are numbered along the chain they refer to.

Tests used:
[1] = test system: liver tissue; assay: Liver disease mouse model induced by carbon tetrachloride (CCl4); format: in vivo, BALB/C mice
Procedure: First, a mouse model in which liver disease was induced by intraperitoneally injecting carbon tetrachloride (CCl4) once a week for 1, 4 or 16 weeks at the concentration of 1 mg/kg to 4-week-old BALB/C mice (Orient Bio, Korea) was prepared.
On the other hand, after administering CCl4 to the TM4SF5 gene KO mouse prepared in Example <7-1> as described above, the liver tissue was obtained and Mason's trichrome staining was performed, and the results are shown in FIG. 22C. As a result, it was confirmed that the accumulation of collagen was decreased in the TM4SF5 gene KO mouse compared to the control group (FIG. 22C).

[2] = biological target: T1, c-Src protein (Mus musculus, UniProt P05480); assay: Western blotting of separated liver tissue of the liver disease model mouse treated with c-Src inhibitor PP2 or control PP3; format: cell-based; details: FIG. 26C
T1 construct: from tissue; host or cells: liver tissue / hepatocytes of CCl4-treated BALB/C mice
Procedure: Particularly, a lysis buffer [50 mM Tris-HCl (pH 7.4), 1% NP40, 0.25% sodium dioxycholate, 150 mM NaCl, 1 mM EDTA], SDS (sodium dodecyl sulfate), Na3O4V and protease inhibitor cocktail (GenDepot) were added to the obtained liver tissue, which was left at 4° C. for 15 minutes to lyse the tissue. The lysate was centrifuged for 30 minutes under the conditions of 13,000 rpm and 4° C. to obtain a supernatant. The proteins present in the supernatant were quantified using BCA reagent (Thermo Scientifics). 4× sample buffer [4 ml of 100% glycerol, 2.4 ml of Tris-HCl (pH 6.8), 0.8 g of SDS, 4 mg of brominated phenol blue, 0.4 ml of β-mercaptoethanol and 3.1 ml of H2O, final volume: 10 ml] was added thereto, which was boiled at 100° C. for 5 minutes. SDS-PAGE was performed, and the proteins were transferred to a nitrocellulose membrane (Whatman). The membrane was pretreated in a solution containing 5% skim milk for 1 hour, and reacted with the antibodies against laminin (Abcam, UK), ACC1 (Cell Signalling, USA), SREBP1 precursor (Santa cruz, USA), mature SREBP1 (Santa cruz, USA), MTP (Santa cruz, USA), PPARα (Santa cruz, USA), pY^706STAT3 (Millipore, USA), STAT3 (Santa cruz, USA), α-tubulin (Sigma, USA) and TM4SF5 (J Clin Invest. 2008 April; 118(4): 1354-66) as the primary antibodies at 4° C. for 15 hours. […]

[3] = High arginine diet for 10 weeks: body weight and liver fat (H&E); format: in vivo, mouse; details: for weight gain compared to the mouse fed a normal diet: high arginine diet 10 weeks, FIG. 17A
Procedure: Particularly, the TM4SF5 gene KO mouse prepared in Example <7-1> was fed L-arginine (40 g/kg of mouse body weight) for 10 weeks.
The liver tissue was extracted from the TM4SF5 gene KO mouse fed a high arginine diet in Example <13-1>, and H&E staining was performed using the method described above.

[4] = biological target: T2, TM4SF5 mutant, 124th to 129th amino acid residues (Homo sapiens, UniProt O14894, E129A/F128S/G125A/H127A/W124A/Y126S); assay: Arginine binding to TM4SF5 mutants of the 124th to 129th amino acid residues; details: FIG. 15G
T2 construct: made in house
T2 sequence (O14894 1-197 W124A/G125A/Y126S/H127A/F128S/E129A): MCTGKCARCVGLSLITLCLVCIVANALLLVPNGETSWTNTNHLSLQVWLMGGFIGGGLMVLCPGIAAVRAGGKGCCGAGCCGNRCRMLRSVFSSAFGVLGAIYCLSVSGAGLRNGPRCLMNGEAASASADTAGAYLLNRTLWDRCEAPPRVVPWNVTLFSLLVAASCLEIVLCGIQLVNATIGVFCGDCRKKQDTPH
Procedure: (§1) First, HEK293FT cells (Thermo, USA) were prepared by culturing in 5% CO2 at 37° C. using DMEM containing 10% FBS and antibiotics. The prepared cells were distributed in 150 mm plates and cultured to the density of 60%, which were transfected with the construct expressing TM4SF5, MetaP2, Castrol, TM4SF1, TM4SF4 and TM4SF5 proteins constructed in Example 11 using PEI. Two days after the transfection, the desired protein was precipitated under the same conditions and methods as described in Example 11 using the beads coated with streptavidin. The precipitate was added with 10 μM [3H]-arginine (American radiolabeled chemicals, USA), followed by reaction at 4° C. for 1 hour. At this time, a sample in which 10 mM of L-arginine was added to the same amount of beads was used as the control. Upon completion of the reaction, the beads were washed 3 times with lysis buffer, to which 2 m ? of scintillation cocktail (Ultima gold, Perkin Elmer, USA) was added. The mixture was vortexed and analyzed using a liquid scintillation counter (Tri-Carb, Perkin Elmer, USA).
(§2) First, a short extracellular loop (SEL) fragment mutant comprising the 31st to 42nd amino acid residues from the N-terminus of the amino acid sequence constituting TM4SF5 protein (SEQ. ID. NO: 1) and a long extracellular loop (LEL) fragment mutant comprising the 113th to 157th amino acid residues from the N-terminus were prepared. […]

[5] = biological target: T3, TM4SF5 protein (Homo sapiens, UniProt O14894); assay: [3H]-arginine binding to precipitated TM4SF5 protein (liquid scintillation)
T3 construct: in addition to the wild type of TM4SF5 protein (WT, full length); made in house; host or cells: HEK293FT cells, transient transfection with PEI, pull-down on streptavidin-coated beads
T3 sequence (O14894 1-197): T2 sequence (O14894 1-197 W124A/G125A/Y126S/H127A/F128S/E129A) with A124W, A125G, S126Y, A127H, S128F, A129E
Procedure: as §1
An experiment was performed to confirm whether the binding of TM4SF5 protein and arginine confirmed in Example <12-2> was concentration-dependent. The experiment was performed under the same conditions and methods as described in Example <12-2>, except that HEK293FT cells transformed with TM4SF5 protein were used and 0, 0.01, 0.05. 0.1 or 0.5 mM L-arginine was added.

[6] = biological target: T4, short extracellular loop (SEL) mutant of TM4SF5 protein (Homo sapiens, UniProt O14894); assay: Arginine binding to short extracellular loop (SEL) mutant of TM4SF5; details: FIG. 15F
T4 construct: a short extracellular loop (SEL) fragment mutant comprising the 31st to 42nd amino acid residues from the N-terminus; made in house
Procedure: as §1, §2

[7] = biological target: T5, Castor1 protein (Homo sapiens, UniProt Q8WTX7); assay: [3H]-arginine binding to precipitated Castor1 protein
T5 construct: made in house; host or cells: HEK293FT cells, transient transfection with PEI, pull-down on streptavidin-coated beads
T5 sequence (Q8WTX7 1-329): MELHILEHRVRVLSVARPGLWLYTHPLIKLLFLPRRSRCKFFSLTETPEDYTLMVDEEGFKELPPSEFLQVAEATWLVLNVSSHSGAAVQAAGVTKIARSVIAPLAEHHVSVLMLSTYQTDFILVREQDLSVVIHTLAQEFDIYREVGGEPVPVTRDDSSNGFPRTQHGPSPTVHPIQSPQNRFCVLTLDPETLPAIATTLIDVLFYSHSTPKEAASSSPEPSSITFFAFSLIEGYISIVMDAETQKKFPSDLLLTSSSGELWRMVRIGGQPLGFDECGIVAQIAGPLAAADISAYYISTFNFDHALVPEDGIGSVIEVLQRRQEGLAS
Procedure: as §1

[8] = test system: liver tissue; assay: Liver cancer induced by injecting diethylnitrosamine (DEN); format: in vivo; details: transgenic mouse
Procedure: The exacerbation process of liver disease was confirmed using the transgenic mouse as follows. Particularly, the transgenic mouse was induced with liver cancer by injecting diethylnitrosamine (DEN). The liver tissue was extracted from the mouse, and H&E staining was performed. As a result, it was confirmed that liver cancer was induced (FIG. 31A). It was also confirmed that the phosphorylation of STAT3 protein and the expression of laminin were increased as the expression of TM4SF5 protein increased (FIG. 31B).

[9] = test system: fat-related genes; assay: Real-time PCR of fat-related genes in normal hepatocytes treated with IL-6; format: cell-based, C57BL/6 normal mouse; details: FIGS. 4B and 4C
[10] = test system: STAT3 phosphorylation and laminin protein expression; assay: Western blotting of separated liver tissue of the liver disease model mouse treated with IL-6; format: cell-based; details: FIG. 26A
Procedure: Particularly, a lysis buffer [50 mM Tris-HCl (pH 7.4), 1% NP40, 0.25% sodium dioxycholate, 150 mM NaCl, 1 mM EDTA], SDS (sodium dodecyl sulfate), Na3O4V and protease inhibitor cocktail (GenDepot) were added to the obtained liver tissue, which was left at 4° C. for 15 minutes to lyse the tissue. The lysate was centrifuged for 30 minutes under the conditions of 13,000 rpm and 4° C. to obtain a supernatant. The proteins present in the supernatant were quantified using BCA reagent (Thermo Scientifics). 4× sample buffer [4 ml of 100% glycerol, 2.4 ml of Tris-HCl (pH 6.8), 0.8 g of SDS, 4 mg of brominated phenol blue, 0.4 ml of β-mercaptoethanol and 3.1 ml of H2O, final volume: 10 ml] was added thereto, which was boiled at 100° C. for 5 minutes. SDS-PAGE was performed, and the proteins were transferred to a nitrocellulose membrane (Whatman). The membrane was pretreated in a solution containing 5% skim milk for 1 hour, and reacted with the antibodies against laminin (Abcam, UK), ACC1 (Cell Signalling, USA), SREBP1 precursor (Santa cruz, USA), mature SREBP1 (Santa cruz, USA), MTP (Santa cruz, USA), PPARα (Santa cruz, USA), pY^706STAT3 (Millipore, USA), STAT3 (Santa cruz, USA), α-tubulin (Sigma, USA) and TM4SF5 (J Clin Invest. 2008 April; 118(4): 1354-66) as the primary antibodies at 4° C. for 15 hours. Then, the membrane was reacted with the secondary antibody, and developed on an X-ray film using an ECL solution (Pierce, USA).
In addition, the separated liver tissue was treated with IL-6 and Western blotting was performed as described above to confirm whether the increased STAT3 phosphorylation and laminin protein expression were dependent on IL-6. […] Therefore, it was confirmed that the expressions of laminin and laminin γ2 were increased depending on TM4SF5 protein.

[11] = test system: SOCS3 gene; assay: SOCS3 shRNA in primary hepatocytes, Western blotting; format: cell-based, mouse; details: FIG. 8E
Text: The primary hepatocytes isolated from the normal mouse (52 weeks old) were transfected with SOCS3 (NM_174466) shRNA (shSOCS3, sense 5′ […]-3′ SEQ. ID. NO: 111; antisense 5′ […]-3′ SEQ. ID. NO: 112) under the same conditions and methods as described in Example <4-1> to prepare hepatocytes wherein the expression of SOCS3 gene was suppressed, and the expression changes of SREBP1 and SOCS3 proteins and the phosphorylation changes of STAT3 were confirmed by Western blotting.

[12] = administered for 4 or 16 weeks, FIG. 22A
[13] = primary hepatic epithelial cells

ClC(Cl)(Cl)Cl [CCl4, carbon tetrachloride]
expression of TM4SF5 protein, phosphorylation of STAT3 protein and level of ECM in the liver tissue ([1]; FIG. 23A): all increased
accumulation of collagen, Mason's trichrome staining ([1]; TM4SF5 gene KO mouse compared to the control group, FIG. 22C): decreased
cells in the liver tissue, H&E and Mason's trichrome staining [1, 12]: died
collagen between the cells [1, 12]: accumulated
mRNA levels of elastin, laminin α2, α3, α5, γ2, and γ3 chains versus control group not treated ([1]; administered for 4 or 16 weeks, FIG. 23B): higher

CC(C)(C)n1nc(-c2ccc(Cl)cc2)c2c(N)ncnc21 [PP2]
expression of laminin protein [2]: suppressed
phosphorylation of STAT3 protein [2]: suppressed

N=C(N)NCCC[C@H](N)C(=O)O [arginine, L-arginine]
weight gain of each mouse in comparison to the starting point of the high arginine diet ([3]; TM4SF5 gene KO mouse, FIG. 17B): significantly decreased
fat accumulation in the liver tissue, H&E staining ([3]; TM4SF5 gene KO mouse, FIG. 17C): relatively suppressed
weight gain compared to the mouse fed a normal diet ([3]; TM4SF5 gene KO mouse): about 7%
fatty liver, H&E staining of liver tissue ([3]; normal mouse, FIG. 17C): fatty liver was induced
weight gain compared to the mouse fed a normal diet ([3]; normal mouse): about 25%
binding to TM4SF5 mutant of 124th to 129th residues [4]: not bound
concentration dependence of binding to TM4SF5 protein ([5]; 0, 0.01, 0.05, 0.1 or 0.5 mM L-arginine, FIGS. 15D and 15E): concentration-dependently
binding to TM4SF5 protein ([5]; 10 μM [3H]-arginine, 4° C., 1 hour, FIGS. 15B and 15C): directly bound
binding of TM4SF5 compared with control protein MetaP2 ([5]; FIG. 15B): more strongly
binding of TM4SF5 compared with TM4SF1 or TM4SF4 ([5]; FIG. 15C): more strongly
binding to SEL mutant of TM4SF5 protein [6]: not bound
binding of Castor1 compared with control protein MetaP2 ([7]; FIG. 15B): more strongly
binding to Castor1 protein ([7]; FIGS. 15B and 15C): directly bound

CCN(CC)N=O [diethylnitrosamine]
liver cancer, H&E staining ([8]; FIG. 31A): induced
phosphorylation of STAT3 protein and expression of laminin ([8]; FIG. 31B): increased

IL-6: a cytokine associated with fatty liver
expressions of Srebp1, Srebp2, Fasn, CD36, Fabp1, Vldlr and Ldlr, the fat-related genes [9]: increased
expression of collagen 1 [10]: increased
level of laminin protein [10]: not changed
phosphorylation of STAT3 protein [10]: increased

shSOCS3: SOCS3 shRNA, SEQ. ID. NO: 111 (sense) and 112 (antisense) (sense CAACAUCUCUGUCGGAAGAUU; antisense UCUUCCGACAGAGAUGUUGUU; listed as RNA, chemistry not given here)
amount of SREBP1 protein [11, 13]: decreases
phosphorylation of STAT3 protein [11, 13]: increases
expression of SOCS3 gene ([11]; primary hepatocytes): decreased
